In article PMC4457840, “Differential Inhibition of Signal Peptide Peptidase Family Members by Established γ-Secretase Inhibitors” (PLoS ONE, 2015):

How the values were obtained:
SPP = tested on: SPP; set-up: method as in PMID 15252014, PMID 19337374, PMID 12621027; settings: cited from earlier work
γ-secretase = tested on: γ-secretase; set-up: method as in PMID 24352661, PMID 23791707; settings: cited from earlier work
SPPL2a = biological target: T1, SPPL2a (Homo sapiens, UniProt Q8TCT8); assay: FBA/SPPL2a co-transfected HEK 293T cell cleavage assay (Aβ ELISA, Western blot); type: cell-based; settings: overnight
T1 construct: expressed in transfected cells; host or cells: HEK 293T
T1 sequence (Q8TCT8 26-520): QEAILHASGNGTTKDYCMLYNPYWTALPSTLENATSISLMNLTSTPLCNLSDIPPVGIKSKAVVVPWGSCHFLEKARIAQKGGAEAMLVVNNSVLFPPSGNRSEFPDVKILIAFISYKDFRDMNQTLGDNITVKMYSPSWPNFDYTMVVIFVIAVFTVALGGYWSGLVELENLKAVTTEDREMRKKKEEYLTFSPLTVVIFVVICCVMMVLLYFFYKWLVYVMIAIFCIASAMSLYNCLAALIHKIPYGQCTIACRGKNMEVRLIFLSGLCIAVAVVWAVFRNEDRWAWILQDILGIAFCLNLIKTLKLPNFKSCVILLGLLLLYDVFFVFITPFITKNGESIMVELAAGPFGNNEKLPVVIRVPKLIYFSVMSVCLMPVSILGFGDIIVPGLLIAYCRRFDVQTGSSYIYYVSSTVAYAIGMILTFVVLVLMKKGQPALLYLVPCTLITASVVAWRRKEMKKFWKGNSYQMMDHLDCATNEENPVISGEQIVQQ

Compound	inhibition of SPP activity (SPP)	inhibition of γ-secretase cleavage of APP (γ-secretase)	inhibition at 10 µM (SPPL2a)
C[C@H](NC(=O)[C@@H](O)c1cc(F)cc(F)c1)C(=O)N[C@@H]1C(=O)N(C)c2ccccc2-c2ccccc21 [LY-411,575]	inhibit the activity of SPP		
CC(C)C[C@H](NC(=O)OCc1ccccc1)C(=O)N[C@@H](CC(C)C)C(=O)NCC(=O)CNC(=O)[C@H](CC(C)C)NC(=O)[C@H](CC(C)C)NC(=O)OCc1ccccc1 [(Z-LL)2 ketone]		does not inhibit	> 75%
C[C@H](NC(=O)Cc1cc(F)cc(F)c1)C(=O)NC(C(=O)OC(C)(C)C)c1ccccc1 (stereo partly shown) [DAPT]	selectively inhibit PSENs, but not SPPs		
